This test deals with miR-124. Briefly: Regulation of miR-124 expression in a PBMC in vitro model (qPCR). The settings on record: 5 μM test compound, 24 h, human PBMC stimulated with PHA-L and IL-2; miR-191 internal reference; read-out: Relative expression of miR-124, fold change compared with DMSO-treated cells. Format: cell-based. The protocol: Pharmacological Activity Test: Regulation of miR-124 Expression by the Quinoline Derivatives in a PBMC In Vitro Model
• a. human PBMC cells • b. PHA-L • c. IL-2 • d. mirVana™ miRNA Extraction kit • e. TaqMan Advanced miRNA cDNA Synthesis Kit • f. TaqMan Fast Gene Expression Master Mix • g. TaqMan Advanced miRNA Assay (mir191) • h. TaqMan Advanced miRNA Assay (mir124)
Human PBMC cells were resuscitated. The cell suspension was transferred to a 75 cm^2 culture flask containing 13 mL of culture medium. The cells were cultured overnight in a 37° C., 5% CO2 incubator. The cell suspension was then collected in a conical flask, centrifuged at 1200 rpm for 5 minutes, and the supernatant was discarded. The cells were resuspended in 1 mL of fresh culture medium, and then the cell clumps were gently blown apart and inoculated into a 6-well plate at a density of 4*10^6 cells/mL. 5 μg/mL PHA-L and 10 ng/mL IL-2 were added to each well. The cells were incubated in the incubator for 48 hours. 5 μM of the test compound was added to each well of a 6-well plate, and 0.1% DMSO was added to the blank control wells, and the plate was incubated at 37° C. for 24 h. Cells were collected, Total RNA was isolated and extracted according to the procedure of the mirVana™ miRNA Extraction Kit, and cDNA was prepared according to the procedure of the TaqMan Advanced miRNA cDNA Synthesis Kit. MiR-191 was used as the internal reference gene for qPCR test.
That is, RNA sample→poly (A) tailing reaction→adapter reaction→reverse transcription (RT) reaction→miR-amplification reaction→qPCR test.
The qPCR procedure includes: 50° C. 2 min; 95° C. 20 s; 95° C. 1 s, a 60° C. 20 s, 40 cycles.
The relative gene expression was calculated using the following formula: ΔCt=Ct (miR-124)−Ct (miR-191)
Relative miRNA expression=2^−ΔCt.
Background: In qPCR the cycle at which signal appears reflects the starting amount.

For `Fc1cc(Cl)c2nc(Nc3ccc(C4(C(F)(F)F)CC4)cc3)ccc2c1` [Compound 18, 8-chloro-6-fluoro-N-(4-(1-(trifluoromethyl)cyclopropyl)phenyl)quinolin-2-amine], the fold induction at 5 µM was 125.
